{"source": "patent US5344952A", "about": "“Fluoroketone enzyme inhibitors” (priority 1993, dated 1994)", "key": {"RLE": {"test_system": "RLE", "test": "Sandwich assay for Adenovirus, free inhibitor added to control wells (RLE, o-nitrophenyl butyrate)", "type": "biochemical, rabbit", "settings": "control wells having no antigen; 5×10^-9 M RLE, 50 mM TRIS pH 8.5, 1 mM o-nitrophenyl butyrate; color without inhibitor in ca 15 minutes", "description": "A polyvinyl chloride microtiter plate was coated with anit-adenovirus antibody by incubating the plate for 1 hour at 37° C. in a 1:900 dilution of 4.5 mg/mL stock solution of the antibody in a 10 mM carbonate 20 mM ethylenediaminetetraacetic acid (EDTA) buffer. The plate was washed 3 times with a wash buffer solution consisting of 0.5% casein in 10 mM TRIS and 154 mM NaCl at pH 7.6. Adenovirus infected HeLa cells diluted to ca 1×10^5 plaque forming units (PFU)/ml in pH 7.4 phosphate buffered-saline containing 0.05% polyoxyethylenesorbitan monolaurate, 0.1 mg/ML gentamicin, 0.5% phenol red, 0.1% bovine serum albumin, 10 mM EDTA and 100 mM ethylene bis(oxyethylenenitrilo) tetraacetic acid were serially diluted in 2-fold steps across the plate. The plate was incubated-as above to bind the cells to the antibody, washed with wash buffer, incubated with a 0.005 mg/mL tracer solution of anti-adenovirus conjugated to alkaline phosphatase in wash buffer containing 0.5% gelatin and 10% inactivated fetal calf serum. Excess tracer solution was decanted and the plate was washed 3 times with TRIS buffer (without casein). A mixture of a 1×10^-4 M solution of the blocked inhibitor from Example I and 5×10^-9 M RLE in 50 mM TRIS buffer, pH 8.5, was added and the plate was incubated at room temperature for 10 minutes. o-Nitrophenyl butyrate (1 mM) was then added to each well of the plate. […]"}, "[1]": {"molecular_target": "T1, Rabbit Liver Esterase (E.C. 3.1.1.1) (Oryctolagus cuniculus, UniProt P12337)", "T1 construct": "from tissue; host or cells: liver", "T1 sequence (P12337 19-565)": "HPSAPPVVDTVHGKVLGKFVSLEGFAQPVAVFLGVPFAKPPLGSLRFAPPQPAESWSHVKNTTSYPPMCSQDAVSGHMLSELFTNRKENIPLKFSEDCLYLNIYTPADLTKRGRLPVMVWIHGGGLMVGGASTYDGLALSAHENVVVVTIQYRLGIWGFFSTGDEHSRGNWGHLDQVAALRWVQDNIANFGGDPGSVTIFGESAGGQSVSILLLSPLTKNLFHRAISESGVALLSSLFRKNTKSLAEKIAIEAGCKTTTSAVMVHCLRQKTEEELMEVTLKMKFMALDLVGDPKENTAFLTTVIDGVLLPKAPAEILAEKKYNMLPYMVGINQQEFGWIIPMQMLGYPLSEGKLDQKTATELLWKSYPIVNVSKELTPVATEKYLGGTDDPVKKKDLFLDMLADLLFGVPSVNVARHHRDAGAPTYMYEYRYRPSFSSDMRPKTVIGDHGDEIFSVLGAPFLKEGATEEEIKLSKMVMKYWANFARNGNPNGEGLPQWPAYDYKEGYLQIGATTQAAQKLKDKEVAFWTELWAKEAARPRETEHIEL", "test": "Inhibition constant, rabbit liver esterase (o-nitrophenylbutyrate hydrolysis)", "type": "biochemical", "settings": "RLE; 50 mM Tris pH=8.0; 20 min incubation at ambient temperature; substrate o-nitro-phenylbutrate", "description": "Inhibition constants were measured in 50 mM Tris pH=8.0. Enzyme and inhibitor were incubated at ambient temperature for 20 minutes. Substrate for the enzyme was then added and the rate of hydrolysis was followed spectrophotometrically. The substrate for PLE and RLE was o-nitro-phenylbutrate and for AChE was acetyl thiocholine and Ellman's reagent."}}}
{"smiles": "O=C(CCc1ccc(O)cc1)C(F)(F)F", "note": "[1,1,1-Trifluoro-4-(4-hydroxyphenyl)-2-butanone]", "values": [{"measurement": "color formation in control wells on addition of free inhibitor", "setting": "RLE", "result": "inhibited color formation for longer periods"}]}
{"smiles": "O=C(/C=C/c1cccc(O)c1)C(F)(F)F", "note": "[1,1,1-trifluoro-4-(3-hydroxyphenyl)-3-trans-buten-2-one]", "values": [{"measurement": "Ki", "setting": "[1]", "result": 160, "unit": "nM"}]}
